Patent publication US11225480B2, “Malic enzyme inhibitors” (SUN PHARMA ADVANCED RESEARCH COMPANY LTD, priority 2019, dated 2022)
Where a name gives a salt, the structure may show the parent alone.

How the values were obtained:
Type in all cases: biochemical
human ME3 enzyme = target: T1, human ME3 enzyme (Homo sapiens, UniProt Q16798); test: ME3 inhibition assay (diaphorase/resazurin coupled fluorescence); settings: 10 μM compound concentration; read-out: Malic Enzyme 3 % inhibition (10 μM)
T1 sequence (Q16798 1-604): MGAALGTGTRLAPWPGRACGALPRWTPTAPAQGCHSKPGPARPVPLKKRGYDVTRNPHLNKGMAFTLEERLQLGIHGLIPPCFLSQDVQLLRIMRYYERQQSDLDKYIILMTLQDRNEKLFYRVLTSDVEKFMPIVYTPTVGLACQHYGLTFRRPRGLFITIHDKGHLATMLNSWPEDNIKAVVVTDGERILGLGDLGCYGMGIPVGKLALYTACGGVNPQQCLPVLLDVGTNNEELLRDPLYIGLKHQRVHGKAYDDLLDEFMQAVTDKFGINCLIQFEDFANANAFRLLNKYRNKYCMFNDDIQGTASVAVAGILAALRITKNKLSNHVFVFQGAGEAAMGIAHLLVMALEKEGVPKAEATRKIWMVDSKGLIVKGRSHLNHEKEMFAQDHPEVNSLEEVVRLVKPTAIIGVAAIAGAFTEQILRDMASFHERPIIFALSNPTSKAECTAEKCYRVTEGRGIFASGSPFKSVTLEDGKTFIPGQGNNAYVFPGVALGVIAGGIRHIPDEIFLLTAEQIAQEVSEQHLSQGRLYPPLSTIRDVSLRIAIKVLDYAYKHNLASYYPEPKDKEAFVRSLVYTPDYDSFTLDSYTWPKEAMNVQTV
Summary of the method: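 Coupled read-out: NADPH made by human ME3 (20 nM stock) drives diaphorase conversion of resazurin (50 μM) to resorufin; buffer 50 mM Tris-HCl pH 7.5, 10 mM MnCl2, 3 mM L-malate.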

human ME2 enzyme = human ME2 enzyme (Homo sapiens, UniProt P23368); test: ME2 inhibition assay (diaphorase/resazurin coupled fluorescence); settings: 10 μM compound concentration; read-out: Malic Enzyme 2 % inhibition (10 μM)
Chain of human ME2 enzyme (P23368 19-584): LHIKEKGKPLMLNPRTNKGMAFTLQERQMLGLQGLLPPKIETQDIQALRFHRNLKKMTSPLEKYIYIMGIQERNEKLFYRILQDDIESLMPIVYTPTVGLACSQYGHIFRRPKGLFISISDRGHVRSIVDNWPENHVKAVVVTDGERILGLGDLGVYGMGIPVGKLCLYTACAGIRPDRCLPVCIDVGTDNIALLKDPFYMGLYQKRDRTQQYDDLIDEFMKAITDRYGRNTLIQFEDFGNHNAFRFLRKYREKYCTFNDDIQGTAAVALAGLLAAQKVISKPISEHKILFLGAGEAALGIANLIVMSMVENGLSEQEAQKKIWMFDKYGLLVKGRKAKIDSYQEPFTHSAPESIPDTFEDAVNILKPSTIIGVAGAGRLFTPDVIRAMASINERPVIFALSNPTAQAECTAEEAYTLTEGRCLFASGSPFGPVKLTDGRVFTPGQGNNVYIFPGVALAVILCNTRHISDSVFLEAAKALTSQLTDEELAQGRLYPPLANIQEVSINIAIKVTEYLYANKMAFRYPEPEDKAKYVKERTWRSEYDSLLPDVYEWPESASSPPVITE
Summary of the method: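 Human ME2 (10 μL of 60 nM) was preincubated 5 min at room temperature with compound (10 μM) in 50 mM Tris-HCl pH 7.5, 10 mM MnCl2, 7 mM L-malate, 50 μM resazurin and 0.025 mg/ml diaphorase. The reaction was started with 10 μL of 2 mM β-NAD+ and run 2 hours at room temperature. Resorufin fluorescence (ex 540/em 600 nm) was normalized to enzyme-only (100%) and no-enzyme (0%) controls as % activity.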

human ME1 enzyme = target: T2, human ME1 enzyme (Homo sapiens, UniProt P48163); test: ME1 inhibition assay (diaphorase/resazurin coupled fluorescence); settings: 10 μM compound concentration; read-out: Malic Enzyme 1 % inhibition (10 μM)
T2 sequence (P48163 1-572): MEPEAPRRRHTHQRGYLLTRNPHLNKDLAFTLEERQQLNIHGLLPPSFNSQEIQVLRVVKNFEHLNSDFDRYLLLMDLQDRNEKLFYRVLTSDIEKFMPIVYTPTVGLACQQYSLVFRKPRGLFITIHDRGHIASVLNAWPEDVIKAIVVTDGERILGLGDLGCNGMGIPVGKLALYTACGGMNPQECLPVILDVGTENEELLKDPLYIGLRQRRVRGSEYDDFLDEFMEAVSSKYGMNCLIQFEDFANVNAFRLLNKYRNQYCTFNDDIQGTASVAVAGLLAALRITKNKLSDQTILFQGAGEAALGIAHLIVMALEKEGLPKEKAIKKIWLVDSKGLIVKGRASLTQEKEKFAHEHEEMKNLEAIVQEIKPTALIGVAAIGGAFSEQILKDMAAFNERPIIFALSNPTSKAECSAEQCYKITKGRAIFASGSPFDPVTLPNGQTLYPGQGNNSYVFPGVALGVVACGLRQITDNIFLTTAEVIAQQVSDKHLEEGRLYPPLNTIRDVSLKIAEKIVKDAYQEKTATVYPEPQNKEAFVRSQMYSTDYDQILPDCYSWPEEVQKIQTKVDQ
Summary of the method: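 Compounds at 10 μM preincubated 15 min in 50 mM Tris-HCl pH 7.5, 10 mM MnCl2, 2 mM L-malate, 10 μM resazurin, 0.01 mg/ml diaphorase, then human ME1 added for 5 min; reaction started with NADP+ and run 2 h at room temperature. Resorufin fluorescence (ex 540/em 600 nm) normalized to enzyme-only (100%) and no-enzyme (0%) controls.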

Row | SMILES | inhibition at 10 µM (human ME3 enzyme) [%] | inhibition at 10 µM (human ME2 enzyme) [%] | inhibition at 10 µM (human ME1 enzyme) [%]
1 | CN(CC(=O)N1CCN(c2ccc(O)cn2)CC1)CC12CC3CC(CC(C3)C1)C2 [I.96, 2-[1-Adamantyl-methyl-(methyl)-amino]-1-[4-(5-hydroxy-2-pyridyl)-piperazin-1-yl]ethanone] | > 90 | 70 to 89 | 70 to 89
2 | O=C([C@@H]1C[C@H]1c1ccccc1)N1CCN(c2ccc(O)cn2)CC1 (stereo in doubt) [I.133, [4-(5-hydroxypyridin-2-yl)-piperazin-1-yl]-((1R,2R)-2-phenylcyclopropyl)-methanone] | > 90 | > 90 | > 90
3 | O=C(Cc1c[nH]c2ccccc12)N1CCN(c2ccc(O)cn2)CC1 [I.62, 1-[4-(5-Hydroxy-pyridin-2-yl)-piperazin-1-yl]-2-(1H-indol-3-yl)-ethanone] | > 90 | 70 to 89 | 70 to 89
4 | O=C(O)c1cccc(-c2cc(C(=O)N3CCN(c4ccc(O)cc4)CC3)cc(N3CCOCC3)n2)c1 [I.41, 3-[4-[4-(4-Hydroxy-phenyl)-piperazine-1-carbonyl]-6-morpholino-2-pyridyl]-benzoic acid] | > 90 | > 90 | > 90
5 | O=C(N1CCN(c2ccc(O)cn2)CC1)C(O)(c1ccccc1)C1CCCCC1 (stereo not drawn) [I.95, 2-cyclohexyl-2-hydroxy-1-[4-(5-hydroxy-2-pyridyl)piperazin-1-yl]-2-phenyl-ethanone] | > 90 | 70 to 89 | 70 to 89
6 | O=C(c1c2ccccc2nc2ccccc12)N1CCN(c2ccc(O)cn2)CC1 [I.44, Acridin-9-yl-[4-(5-hydroxy-pyridin-2-yl)-piperazin-1-yl]-methanone] | > 90 | 50 to 69 | > 90
7 | Cc1[nH]c2cc(Cl)c(Cl)cc2c1CC(=O)N1CCN(c2ccc(O)cn2)CC1 [I.176, 2-(5,6-Dichloro-2-methyl-1H-indol-3-yl)-1-[4-(5-hydroxy-pyridin-2-yl)-piperazin-1-yl]-ethanone] | > 90 | > 90 | > 90
8 | O=C(CCc1ccccn1)N1CCN(c2ccc(O)cn2)CC1 [I.129, 1-[4-(5-Hydroxy-pyridin-2-yl)-piperazin-1-yl]-3-pyridin-2-yl-propan-1-one] | > 90 | 70 to 89 | 70 to 89
9 | O=C(CCc1ccncc1)N1CCN(c2ccc(O)cn2)CC1 [I.66, 1-[4-(5-Hydroxy-pyridin-2-yl)-piperazin-1-yl]-3-pyridin-4-yl-propan-1-one] | > 90 | 70 to 89 | 70 to 89
10 | CC(C)(CC(=O)N1CCN(c2ccc(O)cc2)CC1)c1ccccc1 [I.173, 1-[4-(4-Hydroxy-phenyl)-piperazin-1-yl]-3-methyl-3-phenyl-butan-1-one hydrochloride salt] | > 90 | > 90 | 70 to 89
11 | CC(C)(CC(=O)N1CCN(c2ccc(O)cn2)CC1)c1ccc(F)cc1 [I.161, 3-(4-Fluoro-phenyl)-1-[4-(5-hydroxy-pyridin-2-yl)-piperazin-1-yl]-3-methyl-butan-1-one] | > 90 | > 90 | > 90
12 | O=C(c1c2ccccc2cc2ccccc12)N1CCN(c2ccc(O)cc2)CC1 [I.21, Anthracen-9-yl-[4-(4-hydroxy-phenyl)-piperazin-1-yl]-methanone] | > 90 | > 90 | > 90
13 | O=C(Cc1c[nH]c2c(F)cc(F)cc12)N1CCN(c2ccc(O)cn2)CC1 [I.167, 2-(5,7-Difluoro-1H-indol-3-yl)-1-[4-(5-hydroxy-pyridin-2-yl)-piperazin-1-yl]-ethanone] | > 90 | > 90 | > 90
14 | CC(C)(C(=O)N1CCN(c2ccc(O)cn2)CC1)c1c[nH]c2ccc(F)cc12 [I.169, 2-(5-Fluoro-1H-indol-3-yl)-1-[4-(5-hydroxy-pyridin-2-yl)-piperazin-1-yl]-2-methyl-propan-1-one] | > 90 | > 90 | > 90
15 | O=C(CCCc1ccccc1)N1CCN(c2ccc(O)cn2)CC1 [I.65, 1-[4-(5-Hydroxy-pyridin-2-yl)-piperazin-1-yl]-4-phenylbutan-1-one] | > 90 | 70 to 89 | 70 to 89
16 | O=C(Cc1c[nH]c2cc(Cl)c(Cl)cc12)N1CCN(c2ccc(O)cn2)CC1 [I.174, 2-(5,6-Dichloro-1H-indol-3-yl)-1-[4-(5-hydroxy-pyridin-2-yl)-piperazin-1-yl]-ethanone] | > 90 | > 90 | > 90
17 | O=C(O)c1ccccc1CCC(=O)N1CCN(c2ccc(O)cn2)CC1 [I.141, 2-{3-[4-(5-Hydroxy-pyridin-2-yl)-piperazin-1-yl]-3-oxo-propyl}-benzoic acid] | > 90 | > 90 | 70 to 89
18 | Cn1cc(C(=O)N2CCN(c3ccc(O)cn3)CC2)c(=O)c2ccccc21 [I.69, 3-[4-(5-Hydroxy-2-pyridyl)-piperazine-1-carbonyl]-1-methyl-quinolin-4-one] | > 90 | 70 to 89 | 70 to 89
19 | O=C(CCc1ccc(F)cc1)N1CCN(c2ccc(O)cn2)CC1 [I.126, 3-(4-Fluoro-phenyl)-1-[4-(5-hydroxy-pyridin-2-yl)-piperazin-1-yl]-propan-1-one] | > 90 | > 90 | > 90
20 | O=C(c1c[nH]c2ccccc12)N1CCN(c2ccc(O)cn2)CC1 [I.43, [4-(5-Hydroxy-pyridin-2-yl)-piperazin-1-yl]-(1H-indol-3-yl)-methanone] | > 90 | 50 to 69 | > 90
21 | O=C(CCc1cc2ccccc2s1)N1CCN(c2ccc(O)cn2)CC1 [I.122, 3-Benzo[b]-thiophen-2-yl-1-[4-(5-hydroxy-pyridin-2-yl)-piperazin-1-yl]-propan-1-one] | > 90 | > 90 | > 90
22 | CC(CC(=O)N1CCN(c2ccc(O)cn2)CC1)c1ccccc1 (stereo not drawn) [I.115, 1-[4-(5-Hydroxy-pyridin-2-yl)-piperazin-1-yl]-3-phenyl-butan-1-one dihydro-chloride] | > 90 | > 90 | > 90
23 | Cc1[nH]c2ccc(F)cc2c1CC(=O)N1CCN(c2ccc(O)cn2)CC1 [I.166, 2-(5-Fluoro-2-methyl-1H-indol-3-yl)-1-[4-(5-hydroxy-pyridin-2-yl)-piperazin-1-yl]-ethanone] | > 90 | > 90 | > 90
24 | O=C(Cc1c[nH]c2ccc(F)cc12)N1CCN(c2ccc(O)cn2)CC1 [I.131, 2-(5-fluoro-1H-indol-3-yl)-1-[4-(5-hydroxypyridin-2-yl)-piperazin-1-yl]-ethanone] | > 90 | > 90 | > 90
25 | O=C(CCc1c(F)cccc1F)N1CCN(c2ccc(O)cn2)CC1 [I.157, 3-(2,6-Difluoro-phenyl)-1-[4-(5-hydroxy-pyridin-2-yl)-piperazin-1-yl]-propan-1-one] | > 90 | > 90 | > 90
